BindingDB's records for patent WO2022079616 (NOVARTIS AG, 2022)

Legend:
[1] = molecular target: PI3K/PI4K catalytic domain-containing protein (Cryptosporidium hominis, UniProt A0A0S4TH36)
[2] = molecular target: T1, Phosphatidylinositol 4-kinase (Cryptosporidium parvum (strain Iowa II), UniProt Q5CVD3); assay: PI(4)K enzymatic Assay
T1 sequence (Q5CVD3 whole entry): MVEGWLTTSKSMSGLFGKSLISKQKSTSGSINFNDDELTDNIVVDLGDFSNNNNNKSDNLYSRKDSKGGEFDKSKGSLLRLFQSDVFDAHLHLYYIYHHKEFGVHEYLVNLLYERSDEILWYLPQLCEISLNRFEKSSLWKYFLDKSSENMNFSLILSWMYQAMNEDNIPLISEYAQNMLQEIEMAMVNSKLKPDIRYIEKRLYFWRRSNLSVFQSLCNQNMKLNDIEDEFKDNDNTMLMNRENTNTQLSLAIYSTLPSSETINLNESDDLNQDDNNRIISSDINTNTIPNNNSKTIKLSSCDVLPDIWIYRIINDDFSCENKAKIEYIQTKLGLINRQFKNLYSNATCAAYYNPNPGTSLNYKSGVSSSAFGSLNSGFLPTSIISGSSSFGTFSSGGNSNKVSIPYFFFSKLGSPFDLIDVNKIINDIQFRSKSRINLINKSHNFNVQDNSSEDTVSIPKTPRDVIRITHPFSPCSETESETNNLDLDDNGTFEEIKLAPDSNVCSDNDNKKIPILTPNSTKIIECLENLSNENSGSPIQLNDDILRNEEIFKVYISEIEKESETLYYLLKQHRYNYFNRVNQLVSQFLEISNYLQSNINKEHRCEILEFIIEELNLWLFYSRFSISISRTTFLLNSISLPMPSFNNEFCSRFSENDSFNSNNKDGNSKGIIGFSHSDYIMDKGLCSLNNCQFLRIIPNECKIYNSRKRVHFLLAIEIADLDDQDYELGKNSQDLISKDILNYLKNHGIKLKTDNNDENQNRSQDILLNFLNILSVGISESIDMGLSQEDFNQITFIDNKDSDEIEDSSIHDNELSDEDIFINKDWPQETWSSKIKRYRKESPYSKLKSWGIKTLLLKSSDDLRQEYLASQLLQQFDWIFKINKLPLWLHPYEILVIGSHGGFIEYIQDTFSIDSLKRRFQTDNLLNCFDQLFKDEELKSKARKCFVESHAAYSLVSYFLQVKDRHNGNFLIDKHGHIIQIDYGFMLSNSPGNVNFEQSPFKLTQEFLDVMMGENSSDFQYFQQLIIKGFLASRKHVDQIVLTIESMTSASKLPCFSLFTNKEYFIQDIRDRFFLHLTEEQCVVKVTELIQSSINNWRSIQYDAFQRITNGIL
From the text: Baculovirus expression and purification of C. parvum phosphatidylinositol 4-kinase: The full-length coding sequence of C. parvum PI(4)K (cgd8_4500, 1114 amino acids) was codon-optimized for baculovirus expression, synthesized and cloned into pFastBac-HTb (Invitrogen 10584-027) in frame with the amino-terminal polyhistidine tag using the BamHI and HindIII restriction sites. Recombinant pFastBacHTb-CpPI(4)K bacmid clones were generated by site-specific transposition in E. coli DH10Bac (Invitrogen 10361-012). The bacmid sequence was confirmed by direct DNA sequencing to confirm a lack of mutations across the whole gene. The subsequent steps for bacmid isolation, transfection and selection of the recombinant viruses were performed according to the manufacturer s protocol (Bac-to-Bac system # 10359, Invitrogen).SF9 cells, cultured in SF-900 III serum-free medium, were transfected with recombinant baculovirus at 1/200 (v/v) and incubated at 27 °C for 72^h. The pellets were collected after centrifugation and re-suspended in cell lysis buffer (20^mM Tris-HCl, pH^7.5, 300^mM NaCl, 1mM DTT, 20mM imidazole, 0.01% Triton X-100 and 1×^complete protease inhibitor cocktail without EDTA (Roche Diagnostics 04693116001)). The cell suspension was lysed by sonication and the clarified supernatant was loaded onto a 1^ml HisTrap affinity column (GE Healthcare) pre-equilibrated with buffer A (20^mM Tris-HCl, pH^7.5, 300^mM NaCl, 1mM DTT, 20mM Imidazole, and 1×^complete protease inhibitor cocktail without EDTA). The column was washed with buffer B (buffer A containing 45 mM imidazole) and the bound protein of interest was eluted with buffer C (buffer A with 90^mM imidazole). The fractions containing CpPI(4)K were pooled, concentrated using Amicon Ultra-15 and purified by a gel-filtration column (Hi-Load 26/60 Superdex 200, GE Healthcare) equilibrated with 20^mM Tris, pH^7.5, 300^mM NaCl, 1^mM DTT and 1×^protease inhibitor cocktail without EDTA. The concentrations of the purified protein (Mw 132.39 kda) was determined by using the protein molar extinction coefficient (ε280^nm = 133,810^M−1^cm−1). Aliquots were flash frozen in liquid nitrogen and immediately stored at −80 °C.PI(4)K enzymatic Assay: The CpPI(4)K enzymatic assay was performed as described earlier with a some modifications (McNamara et al., 2013). Briefly, L-α-phosphatidylinositol (Avanti Polar Lipid 840046), dissolved in 3% n-octylglucoside (Roche Diagnostics 10634425001), was used as the lipid substrate for the PI(4)K activity assay. CpPI(4)K was assayed using Transcreener ADP2 FP detection kit (BellBrook 3010) in a black, solid 384-well plate (Corning 3575). The final assay volume was 10^μl and contained 3^nM of the respective CpPI(4)K construct in 10^mM Tris, pH^7.5, 1^mM DTT, 3^μM ATP, 5^mM Mn2+, 0.05% Triton X-100 and 10^μM phosphatidylinositol/octylglucoside. The enzyme reaction was performed for 50 minutes at room temperature and was stopped by adding 10^μl of detection mix containing 1×^stop buffer (50mM HEPES, pH7.5, 400mM NaCl, 20mM EDTA, and 0.02% Brij-35), 2^nM AMP Alexa Fluor 633 tracer, and 20^μg^ml−1 ADP antibody. Fluorescence polarization measurements were performed on the Infinite M1000 plate reader (Tecan) with λex = 635^nm and λem = 680^nm (20-nm bandwidth). IC50 values were calculated using Graphpad Prism software.

PI3K/PI4K catalytic domain-containing protein, sequence (A0A0S4TH36 whole entry, the tested form may be a part): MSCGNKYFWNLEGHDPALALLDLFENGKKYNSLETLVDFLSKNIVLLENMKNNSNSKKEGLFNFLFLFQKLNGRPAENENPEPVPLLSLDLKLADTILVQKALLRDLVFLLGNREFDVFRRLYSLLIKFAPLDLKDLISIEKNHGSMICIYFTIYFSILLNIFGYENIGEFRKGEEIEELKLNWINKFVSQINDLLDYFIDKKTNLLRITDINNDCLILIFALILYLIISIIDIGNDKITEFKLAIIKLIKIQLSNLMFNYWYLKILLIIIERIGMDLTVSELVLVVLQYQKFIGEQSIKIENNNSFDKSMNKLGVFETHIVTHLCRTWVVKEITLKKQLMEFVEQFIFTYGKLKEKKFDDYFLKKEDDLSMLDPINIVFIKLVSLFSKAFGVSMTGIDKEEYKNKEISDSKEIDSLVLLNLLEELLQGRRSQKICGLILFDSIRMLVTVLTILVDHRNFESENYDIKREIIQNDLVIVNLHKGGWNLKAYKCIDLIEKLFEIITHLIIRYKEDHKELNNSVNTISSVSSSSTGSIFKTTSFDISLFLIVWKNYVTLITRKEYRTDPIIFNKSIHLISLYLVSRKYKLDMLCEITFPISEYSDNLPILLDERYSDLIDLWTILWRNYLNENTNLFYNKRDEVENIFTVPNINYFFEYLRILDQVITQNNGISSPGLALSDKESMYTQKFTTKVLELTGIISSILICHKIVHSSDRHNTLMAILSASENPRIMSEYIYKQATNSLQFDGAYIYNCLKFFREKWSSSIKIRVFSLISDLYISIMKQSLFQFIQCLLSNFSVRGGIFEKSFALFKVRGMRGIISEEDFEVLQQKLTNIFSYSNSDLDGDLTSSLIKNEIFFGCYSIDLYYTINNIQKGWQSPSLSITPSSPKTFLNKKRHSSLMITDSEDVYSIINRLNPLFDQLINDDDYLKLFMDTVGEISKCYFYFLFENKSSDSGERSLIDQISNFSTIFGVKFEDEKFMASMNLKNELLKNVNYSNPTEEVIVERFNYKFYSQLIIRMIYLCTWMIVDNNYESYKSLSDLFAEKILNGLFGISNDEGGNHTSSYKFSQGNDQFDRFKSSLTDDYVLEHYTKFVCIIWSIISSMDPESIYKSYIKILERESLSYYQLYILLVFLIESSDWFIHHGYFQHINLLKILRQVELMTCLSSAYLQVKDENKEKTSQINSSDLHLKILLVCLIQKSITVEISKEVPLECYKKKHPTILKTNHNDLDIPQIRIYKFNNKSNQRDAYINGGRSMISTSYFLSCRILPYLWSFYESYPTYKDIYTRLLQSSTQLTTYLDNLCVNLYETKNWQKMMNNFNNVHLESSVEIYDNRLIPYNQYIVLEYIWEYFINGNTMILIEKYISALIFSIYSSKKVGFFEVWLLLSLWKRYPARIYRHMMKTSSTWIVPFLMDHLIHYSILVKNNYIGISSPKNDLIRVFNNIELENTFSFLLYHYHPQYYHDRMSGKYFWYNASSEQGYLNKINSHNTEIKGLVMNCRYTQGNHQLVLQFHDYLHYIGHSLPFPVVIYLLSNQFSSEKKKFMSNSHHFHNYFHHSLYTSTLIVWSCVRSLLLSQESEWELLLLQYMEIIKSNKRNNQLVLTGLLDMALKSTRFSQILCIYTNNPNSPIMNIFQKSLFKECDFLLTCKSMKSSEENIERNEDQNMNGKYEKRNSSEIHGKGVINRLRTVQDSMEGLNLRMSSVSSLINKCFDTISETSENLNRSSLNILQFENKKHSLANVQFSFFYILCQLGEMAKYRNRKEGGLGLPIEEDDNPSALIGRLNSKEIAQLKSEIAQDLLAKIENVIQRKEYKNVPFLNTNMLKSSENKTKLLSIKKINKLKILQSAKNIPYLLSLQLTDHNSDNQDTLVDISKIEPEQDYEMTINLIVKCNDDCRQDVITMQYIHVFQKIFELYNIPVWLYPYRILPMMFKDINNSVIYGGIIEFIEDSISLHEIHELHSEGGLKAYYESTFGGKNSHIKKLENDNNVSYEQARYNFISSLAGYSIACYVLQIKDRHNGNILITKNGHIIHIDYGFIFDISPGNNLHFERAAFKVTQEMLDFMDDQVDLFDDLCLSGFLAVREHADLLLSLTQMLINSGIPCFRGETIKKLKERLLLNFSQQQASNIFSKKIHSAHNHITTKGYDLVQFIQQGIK

SMILES	IC50 [1]	IC50 [2]
CCOC(=O)OC(C)OC(=O)c1cc(N(C)C(=O)c2ccn3ncc(-c4ccc(C(N)=O)cc4)c3c2)ccc1Cl (racemic) [WO2022079616, Example 1.14]	> 1000 nM	550 nM
CN(C(=O)c1ccn2ncc(-c3ccc(C(N)=O)cc3)c2c1)c1ccc(Cl)c(C(=O)OCC2CCCO2)c1 (racemic) [WO2022079616, Example 1.15]		< 100 nM
CN(C(=O)c1ccn2ncc(-c3ccc(C(N)=O)cc3)c2c1)c1ccc(Cl)c(C(=O)OC(C)(C)C)c1 [WO2022079616, Example 1.02]		< 100 nM
CN(C(=O)c1ccn2ncc(-c3ccc(C(N)=O)cc3)c2c1)c1ccc(Cl)c(C(=O)O)c1 [WO2022079616, Example 1.03]		< 100 nM
CSCCOC(=O)c1cc(N(C)C(=O)c2ccn3ncc(-c4ccc(C(N)=O)cc4)c3c2)ccc1Cl [WO2022079616, Example 1.04]		< 100 nM
CC(C)COC(=O)c1cc(N(C)C(=O)c2ccn3ncc(-c4ccc(C(N)=O)cc4)c3c2)ccc1Cl [WO2022079616, Example 1.05]		< 100 nM
COC(=O)COC(=O)c1cc(N(C)C(=O)c2ccn3ncc(-c4ccc(C(N)=O)cc4)c3c2)ccc1Cl [WO2022079616, Example 1.06]		< 100 nM
CN(C(=O)c1ccn2ncc(-c3ccc(C(N)=O)cc3)c2c1)c1ccc(Cl)c(C(=O)OCCN2CCOCC2)c1 [WO2022079616, Example 1.08]	> 1000 nM	< 100 nM
CCOC(=O)c1cc(N(C)C(=O)c2ccn3ncc(-c4ccc(C(N)=O)cc4)c3c2)ccc1Cl [WO2022079616, Example 1.09]		< 100 nM
CN(C(=O)c1ccn2ncc(-c3ccc(C(N)=O)cc3)c2c1)c1ccc(Cl)c(C(=O)OCC(F)(F)F)c1 [WO2022079616, Example 1.10]		< 100 nM
COCCOC(=O)c1cc(N(C)C(=O)c2ccn3ncc(-c4ccc(C(N)=O)cc4)c3c2)ccc1Cl [WO2022079616, Example 1.11]		< 100 nM
CN(C)C(=O)COC(=O)c1cc(N(C)C(=O)c2ccn3ncc(-c4ccc(C(N)=O)cc4)c3c2)ccc1Cl [WO2022079616, Example 1.12]		< 100 nM
CC(C)OC(=O)c1cc(N(C)C(=O)c2ccn3ncc(-c4ccc(C(N)=O)cc4)c3c2)ccc1Cl [WO2022079616, Example 1.13]		< 100 nM
CNC(=O)c1ccc(-c2cnn3ccc(C(=O)N(C)c4ccc(Cl)c(C(=O)OC)c4)cc23)cc1 [WO2022079616, Example 1.16]	550 nM	< 100 nM
CNC(=O)c1ccc(-c2cnn3ccc(C(=O)N(C)c4ccc(Cl)c(C(=O)OC(C)(C)C)c4)cc23)cc1 [WO2022079616, Example 1.17]		< 100 nM
CNC(=O)c1ccc(-c2cnn3ccc(C(=O)N(C)c4ccc(Cl)c(C(=O)O)c4)cc23)cc1 [WO2022079616, Example 1.18]	550 nM	< 100 nM
CNC(=O)c1ccc(-c2cnn3ccc(C(=O)N(C)c4ccc(Cl)c(C(=O)OCCN5CCOCC5)c4)cc23)cc1 [WO2022079616, Example 1.19]	550 nM	< 100 nM
COC(=O)c1cc(N(C)C(=O)c2ccn3ncc(-c4ccc(C(N)=O)cc4C)c3c2)ccc1Cl [WO2022079616, Example 1.21]	> 1000 nM	< 100 nM
CNC(=O)c1ccc(-c2cnn3ccc(C(=O)N(C)c4ccc(Cl)c(C(=O)OC)c4)cc23)cc1C [WO2022079616, Example 1.22]	> 1000 nM	550 nM
COC(=O)c1cc(NC(=O)c2ccn3ncc(-c4ccc(C(N)=O)cc4)c3c2)ccc1Cl [WO2022079616, Example 1.23]	> 1000 nM	> 1000 nM
CNC(=O)c1ccc(-c2cnn3ccc(C(=O)Nc4ccc(Cl)c(C(=O)OC)c4)cc23)cc1 [WO2022079616, Example 1.24]	> 1000 nM	> 1000 nM
COC(=O)c1cc(N(C)C(=O)c2ccn3ncc(-c4ccc(C(N)=O)cc4)c3c2)ccc1OC(F)(F)F [WO2022079616, Example 1.25]	> 1000 nM	< 100 nM
CNC(=O)c1ccc(-c2cnn3ccc(C(=O)N(C)c4ccc(OC(F)(F)F)c(C(=O)OC)c4)cc23)cc1 [WO2022079616, Example 1.26]		< 100 nM
COC(=O)c1cc(N(C)C(=O)c2ccn3ncc(-c4ccc(C(N)=O)cc4)c3c2)ccc1C#N [WO2022079616, Example 1.27]	> 1000 nM	550 nM
CNC(=O)c1ccc(-c2cnc3cnc(C(=O)N(C)c4ccc(Cl)c(C(=O)OC)c4)cn23)cc1 [WO2022079616, Example 2.1]	> 1000 nM	< 100 nM
CNC(=O)c1ccc(-c2cnn3cnc(C(=O)N(C)c4ccc(Cl)c(C(=O)OC)c4)cc23)cc1 [WO2022079616, Example 3.1]	> 1000 nM	< 100 nM
COC(=O)c1cc(Cl)ccc1N(C)C(=O)c1ccn2ncc(-c3ccc(C(N)=O)cc3)c2c1 [WO2022079616, Example 4.1]	550 nM	< 100 nM
